ChEMBL document CHEMBL1148631, “Synthesis of cyclopentenyl carbocyclic nucleosides as potential antiviral agents against orthopoxviruses and SARS” (J Med Chem, 2006)
pEC50, pIC50: −log10 of the molar value.

Experiments:
[1] = system: Venezuelan equine encephalitis virus; assay: Selective index against Venezuelan equine encephalitis virus; assay type: functional
[2] = system: Venezuelan equine encephalitis virus; assay: Antiviral activity against Venezuelan equine encephalitis virus; assay type: functional, organism-based
SARS-CoV [3] = assay: Cytotoxicity against SARS coronavirus; assay type: organism-based; details: Severe acute respiratory syndrome-related coronavirus
SARS-CoV [4] = assay: Antiviral activity against SARS coronavirus; assay type: functional, organism-based; details: Severe acute respiratory syndrome-related coronavirus
SARS-CoV [5] = assay: Selective index against SARS coronavirus; assay type: functional, Severe acute respiratory syndrome-related coronavirus
Cowpox virus [6] = assay: Selective index against Cowpox virus; assay type: functional
Yellow fever virus [7] = assay: Antiviral activity against Yellow fever virus; assay type: functional, organism-based
Vaccinia virus [8] = assay: Selective index against Vaccinia virus; assay type: functional, Orthopoxvirus vaccinia
Yellow fever virus [9] = assay: Cytotoxicity against Yellow fever virus; assay type: organism-based
Vaccinia virus [10] = assay: Antiviral activity against Vaccinia virus; assay type: functional, organism-based; details: Orthopoxvirus vaccinia
West Nile virus [11] = assay: Cytotoxicity against West Nile virus; assay type: organism-based
[12] = Cytotoxicity against Cowpox virus; assay type: organism-based
Yellow fever virus [13] = assay: Selective index against Yellow fever virus; assay type: functional
West Nile virus [14] = assay: Antiviral activity against West Nile virus; assay type: functional, organism-based
[15] = Cytotoxicity against Vaccinia virus; assay type: organism-based; details: Orthopoxvirus vaccinia
Cowpox virus [16] = assay: Antiviral activity against Cowpox virus; assay type: functional, organism-based
[17] = system: Venezuelan equine encephalitis virus; assay: Cytotoxicity against Venezuelan equine encephalitis virus; assay type: organism-based

SMILES	Selectivity index [1]	pEC50 [2]	pIC50 (SARS-CoV [3])	pEC50 (SARS-CoV [4])	Selectivity index (SARS-CoV [5])	Selectivity index (Cowpox virus [6])	pEC50 (Yellow fever virus [7])	Selectivity index (Vaccinia virus [8])	pIC50 (Yellow fever virus [9])	pEC50 (Vaccinia virus [10])	pIC50 (West Nile virus [11])	pIC50 [12]	Selectivity index (Yellow fever virus [13])	pEC50 (West Nile virus [14])	pIC50 [15]	pEC50 (Cowpox virus [16])	pIC50 [17]
NC(=O)c1ncn([C@@H]2C=C(CO)[C@@H](O)[C@H]2O)n1	0	< 4.00	< 4.00	4.68	>4.8	0	< 4.00	0	< 4.00	< 3.52	< 4.00	< 3.52	0	< 4.00	< 3.52	< 3.52	< 4.00
NC(=O)c1cn([C@@H]2C=C(CO)[C@@H](O)[C@H]2O)cn1	0	< 4.00	< 4.00	< 4.00	0	0	< 4.00	0	< 4.00	< 3.52	< 4.00	< 3.52	0	< 4.00	< 3.52	< 3.52	< 4.00
NC(=O)c1cn([C@@H]2C=C(CO)[C@@H](O)[C@H]2O)nn1	0	< 4.00	< 4.00	4.33	>2.1	>7.7	< 4.00	>750	< 4.00	6.40	< 4.00	< 3.52	0	< 4.00	< 3.52	4.41	< 4.00
Nc1ccn(C[C@@H](CO)OCP(=O)(O)O)c(=O)n1 [CIDOFOVIR]	–	–	–	–	–	–	–	–	–	5.22	–	< 3.50	–	–	> 3.50	–	–
